Literature values in patent publication US6375634B1, “APPARATUS AND METHOD TO ENCAPSULATE, KILL AND REMOVE MALIGNANCIES, INCLUDING SELECTIVELY INCREASING ABSORPTION OF X-RAYS AND INCREASING FREE-RADICAL DAMAGE TO RESIDUAL TUMORS TARGETED BY IONIZING AND NON-IONIZING RADIATION THERAPY” (Oncology Innovations, Inc., priority 1997, dated 2002).
“Also recorded” adds a separate entry of the source.

Tests used:
[1] = test system: human pancreatic adenocarcinoma AsPC-1 cells
DNA [2] = settings: in the presence of hydrogen peroxide, among ferric iron chelates
DNA [3] = test system: DNA
[4] = iron overload states
[5] = presence of l-histidine
[6] = test system: Chinese hamster ovary cells

For `Cc1c(N)nc([C@H](CC(N)=O)NC[C@H](N)C(N)=O)nc1C(=O)N[C@H](C(=O)N[C@H](C)[C@@H](O)[C@H](C)C(=O)N[C@H](C(=O)NCCc1nc(-c2nc(C(=O)NCCC[S+](C)C)cs2)cs1)[C@@H](C)O)[C@@H](O[C@@H]1O[C@@H](CO)[C@@H](O)[C@H](O)[C@@H]1O[C@H]1O[C@H](CO)[C@@H](O)[C@H](OC(N)=O)[C@@H]1O)c1c[nH]cn1.[Br-]` [Bleomycin A2], the “cell cycle effect in flow-cytometric analysis” value [1] is given as “induced G2/M block” and the induction of apoptosis [1] is given as “did not induce apoptosis”.
For `O=C(O)CN(CC(=O)O)CC(=O)O.[Fe+3]` [ferric nitrilo tri-acetic acid], the DNA damage (DNA [2]) is listed as “produced the most DNA damage”.
In the case of `OO` [hydrogen peroxide], the DNA injury (DNA [3]; 80 micromoles hydrogen peroxide, absence of histidine) is listed as “no injury”.
In the case of `[Fe]` [iron], the “tissue iron level at which the heart sustains injury” value [4] is listed as “approximately one thousand”.
In the case of `N[C@@H](Cc1c[nH]cn1)C(=O)O` [l-histidine], the “sensitivity of hydrogen peroxide resistant cell lines” value [5] is given as “rendered sensitive” and the DNA destroyed (DNA [3]; 80 micromoles hydrogen peroxide with 300 micromoles l-histidine present) is given as “more than 50%”.
For ferritin, the toxicity ([6]; 32 micrograms/ml) is given as “nontoxic; also recorded: not toxic”, the “reduction of clonogenic-cell survival after x-irradiation” value ([6]; 32 micrograms/ml ferritin, 4.0 Gray) is given as “approximately 75%” and the “clonogenic-cell survival after x-irradiation” value ([6]; 32 micrograms/ml ferritin, 4.0 Gray (about 0.66 without ferritin)) is given as about 0.17.
